# Test results reported in patent publication US5292752A, “Antithrombotic compounds” (Merrell Dow Pharmaceuticals Inc., priority 1992, dated 1994).
# Experiments:
# 5HT2 receptor [1] = target: T1, 5HT2 receptor (Mus musculus, UniProt P35363); assay: 5-DMT head twitch test; assay type: in vivo; conditions: ip, mice, 5-DMT induced head twitch, read-out: ED50 FOR ABOLITION OF HEAD TWITCH
# T1 construct: from tissue; host or cells: whole living mouse (endogenous receptor of the brain)
# Experimental: Psychopharmacol., Vol. 3, pages 89-92, (1979). The administration of 5-methoxy-N,N-dimethyltryptamine (DMT) to mice typically produces a characteristic head twitch in the mice. In this test, the mice are administered 5-DMT and a test compound. An absence of head twitches in the mice is considered to be predictive of the ability of the test compound to antagonize the 5HT2 receptor in vivo.
# thrombus formation = conditions: canine models; Bush et al., Drug Development Research, Vol. 7 (1986); cited from earlier work
# [2] = test system: phospholipase C mediated hydrolysis of phosphoinositides in rabbit vascular smooth muscle cells; conditions: Araki et al.; cited from earlier work
# [3] = test system: rabbit vascular smooth muscle cells; conditions: culture of rabbit vascular smooth muscle cells; Araki et al., Atherosclerosis, 83 (1990); cited from earlier work
# [4] = test system: coronary vessel constriction; conditions: patients with stable angina; Golino et al., NEJM 1991; cited from earlier work
# 5HT2 receptor [5] = target: T2, 5HT2 receptor (Rattus norvegicus, UniProt P14842); assay: [3H] spiroperidol binding test
# T2 construct: from tissue
# T2 sequence (P14842 whole entry): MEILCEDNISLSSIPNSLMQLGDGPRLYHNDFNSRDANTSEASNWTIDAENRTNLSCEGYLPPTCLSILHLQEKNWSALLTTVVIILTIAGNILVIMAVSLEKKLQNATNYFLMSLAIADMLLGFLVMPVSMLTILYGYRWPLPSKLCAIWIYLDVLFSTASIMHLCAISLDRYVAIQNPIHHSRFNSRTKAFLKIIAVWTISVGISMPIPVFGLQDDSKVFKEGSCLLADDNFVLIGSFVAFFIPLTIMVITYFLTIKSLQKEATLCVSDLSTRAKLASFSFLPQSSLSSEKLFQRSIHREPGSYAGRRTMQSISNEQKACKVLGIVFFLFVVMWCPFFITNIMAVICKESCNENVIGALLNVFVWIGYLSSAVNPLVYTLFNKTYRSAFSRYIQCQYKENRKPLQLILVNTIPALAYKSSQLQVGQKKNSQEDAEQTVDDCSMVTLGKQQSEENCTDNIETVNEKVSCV
# Excerpt: In this test, 5HT2 receptors are exposed to both [^3 H] spiroperidol, (a substance known to have a specific affinity for the receptor) and the test compound. The extent to which there is a decrease in binding of the [^3 H] spiroperidol to the receptor is indicative of the affinity of the test compound for the 5HT2 receptor.
# 1-(4-Fluorophenyl)-2-[4-[(4-methanesulfonamidophenyl)carbonyl]-1-piperidinyl]-ethanone (Compound #1) and 1-(4-fluorophenyl)-2-[4-[(4-acetamidophenyl)carbonyl]-1-piperidinyl]-ethanone (Compound #2) were tested in this procedure. For comparative purposes, 1-(3-pyridyl)-2-[4 -[(4-methanesulfonamidophenyl)carbonyl]-1-piperidinyl]ethanone (Compound #3) and N-[4-[[1-[2-(4-fluoro phenyl)ethyl]-4-piperidne]carbenyl]phenyl] methane sulfononamide (compound #4) were also tested. Compound #4 was described in European Application 0 320 983, supra, as Example Number 8 and was prepared in that manner.
# T1 sequence (P35363 whole entry): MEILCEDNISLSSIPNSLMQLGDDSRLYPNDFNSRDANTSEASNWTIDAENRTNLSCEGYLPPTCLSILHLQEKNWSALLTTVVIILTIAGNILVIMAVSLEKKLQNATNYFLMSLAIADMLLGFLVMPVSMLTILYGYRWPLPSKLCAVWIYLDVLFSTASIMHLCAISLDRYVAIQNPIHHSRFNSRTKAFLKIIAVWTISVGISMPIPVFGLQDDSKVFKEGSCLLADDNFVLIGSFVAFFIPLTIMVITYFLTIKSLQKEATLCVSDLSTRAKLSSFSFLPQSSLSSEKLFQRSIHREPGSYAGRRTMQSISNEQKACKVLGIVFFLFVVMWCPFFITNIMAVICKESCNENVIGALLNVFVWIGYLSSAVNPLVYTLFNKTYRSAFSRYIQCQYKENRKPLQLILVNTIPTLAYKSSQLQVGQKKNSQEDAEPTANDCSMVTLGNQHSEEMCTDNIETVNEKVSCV
structure (smiles),measurement,setting,value
"CS(=O)(=O)Nc1ccc(C(=O)C2CCN(CC(=O)c3cccnc3)CC2)cc1 [Compound #3, 1-(3-pyridyl)-2-[4-[(4-methanesulfonamidophenyl)carbonyl]-1-piperidinyl]-ethanone]",ED50,5HT2 receptor [1],> 200 mg/kg
"CS(=O)(=O)Nc1ccc(C(=O)C2CCN(CC(=O)c3ccc(F)cc3)CC2)cc1 [Compound #1, 1-(4-Fluorophenyl)-2-[4-[(4-methanesulfonamidophenyl)carbonyl]-1-piperidinyl]-ethanone]",ED50,5HT2 receptor [1],0.034 mg/kg
O=C(c1ccc(F)cc1)C1CCN(CCn2c(=O)[nH]c3ccccc3c2=O)CC1 [Ketanserin],prevention of thrombus formation,thrombus formation,extremely effective in preventing thrombus formation
same,inhibition of phospholipase C mediated hydrolysis of phosphoinositides,[2],inhibited phospholipase C mediated hydrolysis of phosphoinositides
same,inhibition of PDGF induced DNA synthesis,[3],inhibited PDGF induced DNA synthesis
same,block of coronary vessel constriction,[4],blocked coronary vessel constriction
"CS(=O)(=O)Nc1ccc(C(=O)C2CCN(CCc3ccc(F)cc3)CC2)cc1 [Compound #4, N-[4-[[1-[2-(4-fluorophenyl)ethyl]-4-piperidne]carbenyl]phenyl] methane sulfononamide]",ED50,5HT2 receptor [1],0.49 mg/kg
same,IC50,5HT2 receptor [5],100 nM
"CC(=O)Nc1ccc(C(=O)C2CCN(CC(=O)c3ccc(F)cc3)CC2)cc1 [Compound #2, 1-(4-fluorophenyl)-2-[4-[(4-acetamidophenyl)carbonyl]-1-piperidinyl]-ethanone]",ED50,5HT2 receptor [1],0.051 mg/kg
